Measured values reported in ChEMBL document CHEMBL1201862, “PubChem BioAssay data set” (2004).
Activity calls are given as the source filed them.

Legend:
Type in all cases: functional
[1] = biological target: Multidrug resistance protein CDR1 (Candida albicans, UniProt P43071); assay: CaCDR1 efflux pump inhibitors in yeast, dose response, S. cerevisiae AD1-8u, singleplex, Cherry Pick1 hits (AID 588606)
[2] = biological target: Cyclin-dependent kinase 5 (Homo sapiens, UniProt Q00535);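 further: CDK5 measured as one member of a kinase profiling panel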
Sequence of Cyclin-dependent kinase 5 (Q00535 whole entry): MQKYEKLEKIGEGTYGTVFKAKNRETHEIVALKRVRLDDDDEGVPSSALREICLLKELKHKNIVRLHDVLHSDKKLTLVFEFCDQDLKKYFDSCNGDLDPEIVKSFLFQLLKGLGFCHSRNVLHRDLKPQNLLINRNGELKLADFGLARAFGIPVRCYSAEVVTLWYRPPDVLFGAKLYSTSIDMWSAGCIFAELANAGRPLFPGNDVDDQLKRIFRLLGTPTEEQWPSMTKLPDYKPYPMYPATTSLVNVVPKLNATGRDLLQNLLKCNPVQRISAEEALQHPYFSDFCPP

[3] = biological target: Cyclin-dependent kinase 8 (Homo sapiens, UniProt P49336); assay: Navigating the Kinome. Panel member name: CDK8
Sequence of Cyclin-dependent kinase 8 (P49336 whole entry): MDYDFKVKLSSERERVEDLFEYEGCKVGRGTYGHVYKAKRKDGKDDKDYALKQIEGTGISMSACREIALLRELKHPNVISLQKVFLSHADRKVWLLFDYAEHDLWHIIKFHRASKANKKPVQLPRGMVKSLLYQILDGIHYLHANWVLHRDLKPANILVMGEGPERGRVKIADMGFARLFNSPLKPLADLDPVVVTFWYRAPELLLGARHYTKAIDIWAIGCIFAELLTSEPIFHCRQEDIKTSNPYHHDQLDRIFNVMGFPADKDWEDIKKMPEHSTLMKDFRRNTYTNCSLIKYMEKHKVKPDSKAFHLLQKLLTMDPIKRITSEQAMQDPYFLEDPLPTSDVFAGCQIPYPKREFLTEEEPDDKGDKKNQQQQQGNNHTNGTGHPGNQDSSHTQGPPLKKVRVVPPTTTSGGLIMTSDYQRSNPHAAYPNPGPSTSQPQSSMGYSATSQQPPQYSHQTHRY

[4] = biological target: Dual specificity protein kinase CLK4 (Homo sapiens, UniProt Q9HAZ1)
Sequence of Dual specificity protein kinase CLK4 (Q9HAZ1 whole entry): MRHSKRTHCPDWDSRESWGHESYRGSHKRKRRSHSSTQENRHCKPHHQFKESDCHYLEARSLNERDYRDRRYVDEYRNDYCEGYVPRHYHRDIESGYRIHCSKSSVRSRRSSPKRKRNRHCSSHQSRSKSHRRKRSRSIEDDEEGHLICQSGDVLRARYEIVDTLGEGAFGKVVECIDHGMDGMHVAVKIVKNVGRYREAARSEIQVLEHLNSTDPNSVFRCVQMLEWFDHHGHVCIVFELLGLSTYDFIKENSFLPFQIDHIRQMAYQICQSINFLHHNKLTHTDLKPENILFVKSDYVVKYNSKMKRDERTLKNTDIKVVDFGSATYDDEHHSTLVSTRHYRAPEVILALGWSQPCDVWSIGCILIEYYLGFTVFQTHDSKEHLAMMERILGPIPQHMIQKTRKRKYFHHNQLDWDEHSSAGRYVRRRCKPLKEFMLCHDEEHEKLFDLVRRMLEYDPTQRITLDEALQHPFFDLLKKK

Sequence of Multidrug resistance protein CDR1 (P43071 whole entry, looked up): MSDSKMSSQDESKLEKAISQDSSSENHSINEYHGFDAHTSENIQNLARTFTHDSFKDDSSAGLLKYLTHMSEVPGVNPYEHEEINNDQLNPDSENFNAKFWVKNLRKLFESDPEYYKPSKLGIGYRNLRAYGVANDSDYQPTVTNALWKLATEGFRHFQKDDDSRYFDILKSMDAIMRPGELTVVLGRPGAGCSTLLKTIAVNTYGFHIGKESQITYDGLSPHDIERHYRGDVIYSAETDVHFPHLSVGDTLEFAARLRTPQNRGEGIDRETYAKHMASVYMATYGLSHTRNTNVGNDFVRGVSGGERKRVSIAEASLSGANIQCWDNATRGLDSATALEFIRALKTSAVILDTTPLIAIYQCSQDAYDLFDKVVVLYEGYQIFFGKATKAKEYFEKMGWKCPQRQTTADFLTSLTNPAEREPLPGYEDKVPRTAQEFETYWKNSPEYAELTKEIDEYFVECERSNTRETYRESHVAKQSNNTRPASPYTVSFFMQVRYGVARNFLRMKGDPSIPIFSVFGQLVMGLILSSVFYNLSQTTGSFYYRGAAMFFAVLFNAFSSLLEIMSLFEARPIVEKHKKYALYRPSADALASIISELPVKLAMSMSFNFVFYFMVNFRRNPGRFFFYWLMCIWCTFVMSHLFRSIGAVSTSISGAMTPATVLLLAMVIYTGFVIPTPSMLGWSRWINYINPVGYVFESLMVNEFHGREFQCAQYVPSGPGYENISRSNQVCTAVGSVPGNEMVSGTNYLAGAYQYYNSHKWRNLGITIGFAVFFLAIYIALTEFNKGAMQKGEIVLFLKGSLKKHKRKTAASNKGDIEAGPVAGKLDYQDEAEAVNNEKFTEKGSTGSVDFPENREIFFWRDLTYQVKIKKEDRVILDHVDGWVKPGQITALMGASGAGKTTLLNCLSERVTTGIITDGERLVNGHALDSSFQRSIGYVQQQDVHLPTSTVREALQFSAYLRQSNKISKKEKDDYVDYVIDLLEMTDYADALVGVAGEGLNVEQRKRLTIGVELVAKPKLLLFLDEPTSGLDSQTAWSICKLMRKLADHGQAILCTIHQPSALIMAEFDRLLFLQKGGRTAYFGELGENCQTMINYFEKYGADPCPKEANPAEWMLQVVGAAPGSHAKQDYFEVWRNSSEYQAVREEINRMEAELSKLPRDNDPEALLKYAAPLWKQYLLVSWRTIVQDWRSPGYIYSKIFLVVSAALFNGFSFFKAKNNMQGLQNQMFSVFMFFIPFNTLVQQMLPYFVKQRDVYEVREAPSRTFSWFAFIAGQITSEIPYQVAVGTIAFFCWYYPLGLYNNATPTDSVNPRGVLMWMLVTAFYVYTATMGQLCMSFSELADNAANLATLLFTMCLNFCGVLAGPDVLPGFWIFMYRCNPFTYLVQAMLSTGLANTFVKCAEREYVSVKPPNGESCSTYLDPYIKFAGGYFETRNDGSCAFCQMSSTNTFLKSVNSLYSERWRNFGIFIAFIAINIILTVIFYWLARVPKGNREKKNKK

Ki [2]	Ki [3]	Ki [4]	SMILES	EC50 [1]
			COc1cc2c(cc1NC(=O)CSc1nnc(Cc3cccs3)n1Cc1ccco1)oc1ccccc12	0.011 µM (active)
50.1 µM (active)	50.1 µM (active)	31.6 µM (active)	CC(C)(O)c1c(-c2ccccc2)n[nH]c(=O)c1N	
